In PMC5059489, “Mechanistic evaluation and transcriptional signature of a glutathione S-transferase omega 1 inhibitor” (Nature Communications, 2016):
Like-named read-outs stand apart in the source and are kept apart here. Values belong to the compound of their own block, whether it stands above or below them.

How the values were obtained:
PDI = PDI (Homo sapiens, UniProt P07237); experiment: PDI activity assay (PDI-catalysed reduction of insulin); format: biochemical; set-up: made in house
Description: The reduction reaction was catalysed by PDI at room temperature, and the resulting aggregation of reduced insulin B chains was measured at 620 nm. % PDI activity was calculated from absorbance values at T=0 and 80 min.

GSTO1 [1] = molecular target: T1, GSTO1 (Homo sapiens, UniProt P78417); experiment: GSTO1 substrate assay (reduction of 4-NPG)
T1 sequence (P78417 1-241): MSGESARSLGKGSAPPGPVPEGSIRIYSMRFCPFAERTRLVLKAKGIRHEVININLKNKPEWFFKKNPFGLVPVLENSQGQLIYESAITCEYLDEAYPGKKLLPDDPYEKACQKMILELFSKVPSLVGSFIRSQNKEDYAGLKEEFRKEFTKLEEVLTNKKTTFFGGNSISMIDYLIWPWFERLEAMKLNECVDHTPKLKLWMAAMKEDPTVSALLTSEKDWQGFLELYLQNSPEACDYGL
Description: For activity screening, we adapted a GSTO1 substrate assay that relies on the quantification of the reduction of S-(4-nitrophenacyl)glutathione (4-NPG), a GSTO1-specific substrate[17], using recombinant human GSTO1 in a high-throughput screening format.
Enzyme activity was measured by monitoring the reduction of 4-NPG to 4-nitroacetophenone by GSTO1.

GSTO1 [2] = molecular target: T1, GSTO1; experiment: Pre-incubation and dilution assay; format: biochemical; set-up: inferred from pQE30 vector and Ni-NTA purification; made in house; host or cells: Escherichia coli M15 (Rep4)
Description: 4-NPG (20 μl, 0.5 mM) was added and decrease in absorbance was monitored. % Recovery of enzyme activity was determined using a DMSO control.

NCIADR Res = experiment: MTT cytotoxicity GI50, NCI-ADR/Res; format: cell-based; conditions: Homo sapiens, NCI/ADR-RES
Source text: Colon cancer cell line HCT116 was generously provided by Dr Bert Vogelstein, Johns Hopkins Medical Institutions, Baltimore, MD. Pancreatic cancer cell line Panc-1 was obtained from Dr Alan Epstein, University of Southern California. All other cell lines were purchased from the American Type Culture Collection (Manassas, VA). MDA-MB-435 cell line was used in the GSTO1 knockdown experiment as it had high GSTO1 expression (Supplementary Fig. 17). We also tested active compounds in NCI-ADR/Res cell line since GSTO1 is implicated in drug resistance. Cell lines were cultured in RPMI 1640 or […] supplemented with 10% fetal bovine serum at 37 °C in a humidified atmosphere of 5% CO2. All cell lines were maintained in culture under 30 passages and tested regularly for Mycoplasma contamination using PlasmoTest (InvivoGen, San Diego, CA, USA).
(§1) Cell proliferation was assessed by a MTT assay. Cancer cells were seeded in 96-well microtitre plates and, after overnight attachment, treated with GSTO1 inhibitors. After 72 h, MTT solution (3 mg ml^−1; 20 μl) was added to each well and cells were incubated for 3 h at 37 °C. After incubation, media from each well was removed and the dark blue formazan crystals formed by live cells were dissolved in DMSO (150 μl per well). The absorbance intensity was measured at 570 nm on a microplate reader (Molecular Devices, Sunnyvale, CA, USA). Cell viability after 24 h treatment was assessed using ApoTox-Glo triplex assay (Promega) according to the manufacturer's protocol. At least three independent dose–response experiments with each concentration tested in triplicate were performed for each cell line.

H460 = experiment: MTT cytotoxicity GI50, H460; format: cell-based; conditions: Homo sapiens, NCI-H460
Description: as §1

endogenous GSTO1 = molecular target: T2, endogenous GSTO1 (Homo sapiens, UniProt P78417); experiment: In-gel fluorescence competitive CMFDA binding assay, endogenous GSTO1 in HCT116
T2 sequence (P78417 1-241): T1 sequence (P78417 1-241)
Source text: Primary screening of GSTO inhibitors was based on competitive inhibition of CMFDA binding to endogenous GSTO. Briefly, HCT116^p53+/+ cells (4 × 10^4 per well) were coated in a 12-well plate. […] Cells were then washed with PBS and lysed using Cell Lytic M buffer (Sigma). […] Gels were immediately scanned on a Typhoon variable mode imager (Amersham Bioscience). Quantification of fluorescent band intensity was done using Image Quant 5.2 software.

HT29 = experiment: MTT cytotoxicity GI50, HT29; format: cell-based
Description: as §1

GSTO1 [3] = molecular target: T1, GSTO1; experiment: Duration of inhibition (washout, CMFDA labelling of GSTO1 in HCT116 cells); conditions: 2 h treatment
Description: At indicated times after washout, CMFDA (500 nM) was added for 1 h and the cells were lysed and processed for in-gel fluorescence binding assay, to assess recovery of CMFDA binding to GSTO1.

HCT116 = experiment: MTT cytotoxicity GI50, HCT116; format: cell-based, human
Description: as §1

Panc-1 = experiment: MTT cytotoxicity GI50, Panc-1; format: cell-based
Description: as §1

H1299 = experiment: MTT cytotoxicity GI50, H1299; format: cell-based
Description: as §1

A549 = experiment: MTT cytotoxicity GI50, A549; format: cell-based
Description: as §1

BxPC3 = experiment: MTT cytotoxicity GI50, BxPC3; format: cell-based
Description: as §1

PDI, sequence (P07237 18-508, species assumed): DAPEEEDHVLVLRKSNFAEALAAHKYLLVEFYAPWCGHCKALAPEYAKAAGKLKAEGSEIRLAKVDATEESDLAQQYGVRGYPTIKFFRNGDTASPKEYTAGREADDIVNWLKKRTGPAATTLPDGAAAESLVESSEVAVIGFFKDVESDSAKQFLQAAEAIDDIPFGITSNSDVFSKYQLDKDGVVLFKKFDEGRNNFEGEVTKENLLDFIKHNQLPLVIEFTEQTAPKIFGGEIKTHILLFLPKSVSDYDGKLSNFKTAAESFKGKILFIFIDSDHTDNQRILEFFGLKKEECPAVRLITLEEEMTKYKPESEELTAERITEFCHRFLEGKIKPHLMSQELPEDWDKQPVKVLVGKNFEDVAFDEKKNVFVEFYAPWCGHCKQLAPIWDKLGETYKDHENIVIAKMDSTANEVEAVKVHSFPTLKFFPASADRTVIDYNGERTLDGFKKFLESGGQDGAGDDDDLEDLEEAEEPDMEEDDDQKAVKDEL

Fold selectivity (PDI; GSTO1 versus PDI enzyme inhibition): 1.9
IC50 (PDI; inhibition of PDI-catalyzed reduction of insulin): 6.04 ± 0.62 µM
IC50 (GSTO1 [1]; GSTO1 Substrate assay IC50, mean ± SEM, at least 3 independent experiments): 3.14 ± 0.27 µM
IC50 (GSTO1 [1]; Substrate assay IC50, pilot screening): 3.1 µM
mode of GSTO1 enzyme inhibition (GSTO1 [2]; pre-incubation and dilution): irreversible
recovery of GSTO1 enzyme activity after pre-incubation and dilution (GSTO1 [2]; pre-incubation then 40-fold dilution): not recovered
melting point: 142 to 143 °C
IC50 (endogenous GSTO1): 3.9 µM
duration of inhibition of CMFDA labelling of GSTO1 after washout (GSTO1 [3]): up to 24 h
Compound: O=C(CCl)Nc1cc(F)c(F)cc1NC(=O)CCl [4a]
GI50 (NCIADR Res): 2.2 µM
GI50 (H460): 3.5 µM
GI50 (HT29; Homo sapiens, HT-29): 5.6 ± 0.5 µM
GI50 (HCT116; Homo sapiens, HCT-116): 2.4 ± 0.2 µM

Compound: CCOc1ccccc1-n1c(C(C)N2CCN(C(=O)COc3ccc(Cl)cc3)CC2)nc2ccccc2c1=O (stereo not shown) [Erastin]
GI50 (Panc-1; Homo sapiens, PANC-1): 0.5 ± 0.2 µM
GI50 (H1299; Homo sapiens, NCI-H1299): 1.2 µM
GI50 (HT29; Homo sapiens, HT-29): 42.8 ± 3.8 µM
GI50 (A549; Homo sapiens): > 50 µM
GI50 (HCT116; Homo sapiens, HCT-116): 15.9 ± 0.7 µM
GI50 (BxPC3; Homo sapiens, BXPC-3): > 50 µM

Compound: COc1cc(/C=C/C(=O)N2CCC=CC2=O)cc(OC)c1OC [Piperlongumine]
GI50 (Panc-1; Panc-1): 4.9 ± 0.8 µM
GI50 (H1299; H1299): 2.9 µM
GI50 (HT29): 5.1 ± 0.5 µM
GI50 (A549): 16.9 µM
GI50 (HCT116): 2.6 ± 0.2 µM
GI50 (BxPC3): 6.8 ± 1.4 µM
